Measurements published in US20190022152A1, “MICROBIOME RESPONSE TO AGENTS” (Yeda Research and Development Co., Ltd., priority 2014, published 2019).
Read-outs that look alike come from different tables or passages of the source.

System: fecal microbiota
Conditions: fecal samples, 11 weeks consumption
Procedure: Illumina sequence reads were mapped to the human microbiome reference genome database of the Human Microbiome Project [www(dot)hmpdacc(dot)org/HMREFG/^32], and to a gut microbial gene catalogue^33 using GEM mapper^58 with the following parameters: • -m 3 -s 0 -q offset-33 -gem-quality-threshold 26
Microbial species abundance was measured as the fraction of reads that mapped to a single species in the database. An EM algorithm adapted from Pathoscope^59 was employed to determine the correct assignment of reads that mapped to more than one species. We considered only species for which at least 10% of the genome was covered (each coverage bin was 10,000-bp long) in at least one of the growth conditions (saccharin, water, or glucose). Reads mapped to the gut microbial gene catalogue were assigned a KEGG^34,35 ID according to the mapping available with the catalogue. Genes were subsequently mapped to KEGG pathways, and only pathways whose gene coverage was above 0.2 were included.

For `OC[C@H]1OC(O)[C@H](O)[C@@H](O)[C@@H]1O` (stereo partly drawn) [Glucose], the “Fold change (week 11/week 0) in relative species abundance” value (Symbol BACT_9, Number 996) was 1.24, the “Fold change (week 11/week 0) in relative species abundance” value (Symbol BACT_49, Number 420) was 0.15 and the “Fold change (week 11/week 0) in relative species abundance” value (Symbol BACT_60, Number 752) was 0.88. The “Fold change (week 11/week 0) in relative species abundance” value (Symbol BACT_65, Number 918) was 1.20, the “Fold change (week 11/week 0) in relative species abundance” value (Symbol BACT_70, Number 863) was 1.58 and the “Fold change (week 11/week 0) in relative species abundance” value (Symbol BACT_85, Number 934) was 0.91. The “Fold change (week 11/week 0) in relative species abundance” value (Symbol BACT_170, Number 883) was 0.93, the “Fold change (week 11/week 0) in relative species abundance” value (Symbol BACT_171, Number 748) was 1.24 and the “Fold change (week 11/week 0) in relative species abundance” value (Symbol BACT_178, Number 921) was 1.53. The “Fold change (week 11/week 0) in relative species abundance” value (Symbol BACT_181, Number 767) was 1.14, the “Fold change (week 11/week 0) in relative species abundance” value (Symbol BACT_185, Number 633) was 5.63 and the “Fold change (week 11/week 0) in relative species abundance” value (Symbol BACT_189, Number 636) was 1.66. For the same molecule, the “Fold change (week 11/week 0) in relative species abundance” value (Symbol BACT_192, Number 995) was 0.86, the “Fold change (week 11/week 0) in relative species abundance” value (Symbol BACT_195, Number 523) was 1.15 and the “Fold change (week 11/week 0) in relative species abundance” value (Symbol BACT_225, Number 953) was 1.18. For the same molecule, the “Fold change (week 11/week 0) in relative species abundance” value (Symbol BACT_258, Number 620) was 1.13, the “Fold change (week 11/week 0) in relative species abundance” value (Symbol BACT_260, Number 1443) was 0.94 and the “Fold change (week 11/week 0) in relative species abundance” value (Symbol BACT_300, Number 769) was 1.16. For the same molecule, the “Fold change (week 11/week 0) in relative species abundance” value (Symbol BACT_413, Number 847) was 1.17, the “Fold change (week 11/week 0) in relative species abundance” value (Symbol BACT_419, Number 920) was 0.67 and the “Fold change (week 11/week 0) in relative species abundance” value (Symbol BACT_420, Number 922) was 0.87. For the same molecule, the “Fold change (week 11/week 0) in relative species abundance” value (Symbol BACT_424, Number 906) was 1.13, the “Fold change (week 11/week 0) in relative species abundance” value (Symbol BACT_449, Number 772) was 1.13 and the “Fold change (week 11/week 0) in relative species abundance” value (Symbol BACT_463, Number 719) was 1.55. For the same molecule, the “Fold change (week 11/week 0) in relative species abundance” value (Symbol BACT_496, Number 765) was 0.62, the “Fold change (week 11/week 0) in relative species abundance” value (Symbol BACT_499, Number 35) was 0.73 and the “Fold change (week 11/week 0) in relative species abundance” value (Symbol BACT_511, Number 591) was 1.55. For the same molecule, the “Fold change (week 11/week 0) in relative species abundance” value (Symbol BACT_535, Number 940) was 0.66, the “Fold change (week 11/week 0) in relative species abundance” value (Symbol BACT_539, Number 117) was 0.75 and the “Fold change (week 11/week 0) in relative species abundance” value (Symbol BACT_551, Number 907) was 0.73. For the same molecule, the “Fold change (week 11/week 0) in relative species abundance” value (Symbol BACT_572, Number 963) was 0.92, the “Fold change (week 11/week 0) in relative species abundance” value (Symbol BACT_627, Number 886) was 0.66 and the “Fold change (week 11/week 0) in relative species abundance” value (Symbol BACT_681, Number 125) was 1.55. For the same molecule, the “Fold change (week 11/week 0) in relative species abundance” value (Symbol BACT_722, Number 377) was 1.47, the “Fold change (week 11/week 0) in relative species abundance” value (Symbol BACT_843, Number 1318) was 0.69 and the “Fold change (week 11/week 0) in relative species abundance” value (Symbol BACT_850, Number 394) was 1.86. For the same molecule, the “Fold change (week 11/week 0) in relative species abundance” value (Symbol BACT_852, Number 766) was 0.88, the “Fold change (week 11/week 0) in relative species abundance” value (Symbol BACT_855, Number 835) was 1.23 and the “Fold change (week 11/week 0) in relative species abundance” value (Symbol BACT_890, Number 163) was 0.74. For the same molecule, the “Fold change (week 11/week 0) in relative species abundance” value (Symbol BACT_913, Number 904) was 1.17, the “Fold change (week 11/week 0) in relative species abundance” value (Symbol BACT_915, Number 1315) was 1.23 and the “Fold change (week 11/week 0) in relative species abundance” value (Symbol BACT_1001, Number 933) was 0.79. The “Fold change (week 11/week 0) in relative species abundance” value (Symbol BACT_1083, Number 1008) was 2.25, the “Fold change (week 11/week 0) in relative species abundance” value (Symbol BACT_1131, Number 942) was 0.79 and the “Fold change (week 11/week 0) in relative species abundance” value (Symbol BACT_1311, Number 1259) was 1.16. The “Fold change (week 11/week 0) in relative species abundance” value (Symbol BACT_1321, Number 1255) was 1.16, the “Fold change (week 11/week 0) in relative species abundance” value (Symbol BACT_1322, Number 1396) was 1.50 and the “Fold change (week 11/week 0) in relative species abundance” value (Symbol BACT_1324, Number 1264) was 2.61. For the same molecule, the “Fold change (week 11/week 0) in relative species abundance” value (Symbol BACT_1348, Number 1311) was 1.15, the “Fold change (week 11/week 0) in relative species abundance” value (Symbol BACT_1378, Number 1375) was 2.83 and the “Fold change (week 11/week 0) in relative species abundance” value (Symbol BACT_1427, Number 1266) was 1.13. The “Fold change (week 11/week 0) in relative species abundance” value (Symbol BACT_1442, Number 1400) was 1.75, the “Fold change (week 11/week 0) in relative species abundance” value (Symbol BACT_1457, Number 1337) was 0.82 and the “Fold change (week 11/week 0) in relative species abundance” value (Symbol BACT_1501, Number 1331) was 0.79. The “Fold change (week 11/week 0) in relative species abundance” value (Symbol BACT_1526, Number 1227) was 1.58, the “Fold change (week 11/week 0) in relative species abundance” value (Symbol BACT_1555, Number 1469) was 0.62 and the “Fold change (week 11/week 0) in relative species abundance” value (Symbol BACT_1569, Number 1462) was 0.78. The “Fold change (week 11/week 0) in relative species abundance” value (Symbol BACT_1595, Number 1533) was 1.13, the “Fold change (week 11/week 0) in relative species abundance” value (Symbol BACT_1656, Number 1503) was 1.55 and the “Fold change (week 11/week 0) in relative species abundance” value (Symbol BACT_3004, Number 5797) was 1.54. For the same molecule, the “Fold change (week 11/week 0) in relative species abundance” value (Symbol BACT_3005, Number 5799) was 1.56, the “Fold change (week 11/week 0) in relative species abundance” value (Symbol BACT_3007, Number 5798) was 0.94 and the “Fold change (week 11/week 0) in relative species abundance” value (Symbol BACT_3024, Number 5841) was 0.72. For the same molecule, the “Fold change (week 11/week 0) in relative species abundance” value (Symbol BACT_3045, Number 5818) was 1.19, the “Fold change (week 11/week 0) in relative species abundance” value (Symbol BACT_3058, Number 5816) was 1.54 and the “Fold change (week 11/week 0) in relative species abundance” value (Symbol BACT_3060, Number 5821) was 1.62. The “Fold change (week 11/week 0) in relative species abundance” value (Symbol BACT_3062, Number 5800) was 1.49, the “Fold change (week 11/week 0) in relative species abundance” value (Symbol BACT_3085, Number 5842) was 1.90 and the “Fold change (week 11/week 0) in relative species abundance” value (Symbol BACT_4040, Number 5769) was 16.24. The “Fold change (week 11/week 0) in relative species abundance” value (Symbol BACT_4042, Number 5770) was 0.28, the “Fold change (week 11/week 0) in relative species abundance” value (Symbol EUKY_222, Number 1954) was 1.60 and the “Fold change (week 11/week 0) in relative species abundance” value (Symbol V1RL3522, Number 3522) was 2.13.
